The values below come from US8822532B2, “Bis[thiohydrazide amide] compounds for treating leukemia” (Synta Pharmaceuticals Corp., priority 2009, dated 2014).

Data set [1] deals with AML patient blast cells. Nature of the data set: Flow cytometry (MMP, ROS, GSH, membrane integrity) of primary AML patient blasts treated ex vivo. The format is cell-based, human. As to the method:
• Cell lines: OCI-AML2, OCI-AML5, OCI-M2 (p53 mutant M6), MV4-11 (FLT3-ITD) • Patients were treated by the Princess Margaret Hospital Leukemia Program. • Primary blasts from 10 AML patients isolated by density gradient or RBC lysis, maintained in a-MEM+10% FBS±10% 5637-conditioned medium. Flow Cytometry Protocol: • Combined staining at 37° for: • MMP—DiIC1(5) 40 nM 30′ • ROS—carboxy-dichlorofluorescin […] or dihydrorhodamine 123 […] for 30′ • GSH—monobromobimane […] for 5′ • Surface membrane integrity—propidium iodide […] for 5′ • Samples run on 3 laser flow cytometer (Gallios, Beckman-Coulter)

Data set [2] relates to metastatic melanoma. To be noted: cited from earlier work.

Take `CN(NC(=O)CC(=O)NN(C)C(=S)c1ccccc1)C(=S)c1ccccc1` [elesclomol, N-malonyl-bis(N′-methyl-N′-thiobenzoylhydrazide)]: in data set [1] (ex vivo treatment of primary blast cells from patients with AML), the “mitochondrial dysfunction and cell death” value is “rapidly induced mitochondrial dysfunction and cell death”. In data set [2] (elevated LDH population), the “primary endpoint, difference between the two arms” value is “no difference was observed” and the survival endpoint result is listed as “negative impact”. Moreover, in data set [2] (normal LDH population), the “progression-free survival improvement (primary endpoint)” value is on record as “achieved” and the safety profile result is on record as “acceptable safety profile”.

For the compound `CN1C(c2ccccc2)=[SH][Cu]23[SH]=C(c4ccccc4)N(C)[N]2C(=O)CC(=O)[N]13` [elesclomol-Cu(II)], the ROS result in data set [1] (Patient #123 blasts, 100nM, 6 hr, FIG. 3a) was “slight increase in ROS”. In data set [1] (Patient #123 blasts, FIG. 3a), the “loss of mitochondrial membrane potential versus outer membrane integrity (dual MMP/PI plots)” value was “loss of mitochondrial membrane potential precedes the loss of outer membrane integrity”, the “reduced GSH” value is “lost co-incident with the loss of MMP” and the “sensitivity of primary patient blasts compared with AML cell lines” value was “more drug-sensitive”. For the same compound, in data set [1] (Patient #126 blasts, FIG. 3d), the sensitivity of blasts result was “highly sensitive”. Besides, the GSH entry in data set [1] (Patient #127 blasts, 30 nM, already evident at 6 hr, FIG. 3b) was “loss of GSH”. Further, the sensitivity of blasts result in data set [1] (Patient #131 blasts (higher baseline GSH), FIG. 3c) is “less sensitive”. The “GSH and MMP” value in data set [1] (Patient #131 blasts, FIG. 3c) is “loss of GSH co-incident with loss of MMP”. For the same compound, the ROS result in data set [1] (Patient #131 blasts, most evident at 30 nM 24 hr, FIG. 3c) is recorded as “increased ROS”. Further, the “depletion of GSH and dissipation of mitochondrial membrane potential” value in data set [1] (all cases) is listed as “occurred in all cases”. In data set [1] (all samples, 30 nM), the “impairment of primary blasts” value is “significant impairment”.
